# Earlier results as cited in patent US6803187B1 (priority 1998, dated 2004).
# Columns and labels:
# HIV protease = settings: HIV-1 protease numbering
compound,measurement,setting,value
CC(C)CN(C[C@@H](O)[C@H](Cc1ccccc1)NC(=O)O[C@H]1CCOC1)S(=O)(=O)c1ccc(N)cc1 [VX-478],amino acid position/codon whose change confers resistance,HIV protease,50
"CC(C)(C)NC(=O)[C@@H]1C[C@@H]2CCCC[C@@H]2CN1C[C@@H](O)[C@H](Cc1ccccc1)NC(=O)[C@H](CC(N)=O)NC(=O)c1ccc2ccccc2n1 [Ro 31-8959, saquinavir]",patients in whom resistant variants emerge,"HIV; after 1 year of monotherapy, mutations at positions 90 and/or 48",approximately 45%
"CC(C)(C)NC(=O)[C@@H]1CN(Cc2cccnc2)CCN1C[C@@H](O)C[C@@H](Cc1ccccc1)C(=O)N[C@H]1c2ccccc2C[C@H]1O [MK-639, indinavir]",share of indinavir resistant isolates cross-resistant to nelfinavir,"HIV; human, in vivo",Approximately one third
